In ChEMBL document CHEMBL1287660, “Pharmacophore modeling and virtual screening studies for new VEGFR-2 kinase inhibitors” (Eur J Med Chem, 2010):

What follows are molecules tested against Vascular endothelial growth factor receptor 2 (Homo sapiens, UniProt P35968).
Chain of Vascular endothelial growth factor receptor 2 (P35968 whole entry): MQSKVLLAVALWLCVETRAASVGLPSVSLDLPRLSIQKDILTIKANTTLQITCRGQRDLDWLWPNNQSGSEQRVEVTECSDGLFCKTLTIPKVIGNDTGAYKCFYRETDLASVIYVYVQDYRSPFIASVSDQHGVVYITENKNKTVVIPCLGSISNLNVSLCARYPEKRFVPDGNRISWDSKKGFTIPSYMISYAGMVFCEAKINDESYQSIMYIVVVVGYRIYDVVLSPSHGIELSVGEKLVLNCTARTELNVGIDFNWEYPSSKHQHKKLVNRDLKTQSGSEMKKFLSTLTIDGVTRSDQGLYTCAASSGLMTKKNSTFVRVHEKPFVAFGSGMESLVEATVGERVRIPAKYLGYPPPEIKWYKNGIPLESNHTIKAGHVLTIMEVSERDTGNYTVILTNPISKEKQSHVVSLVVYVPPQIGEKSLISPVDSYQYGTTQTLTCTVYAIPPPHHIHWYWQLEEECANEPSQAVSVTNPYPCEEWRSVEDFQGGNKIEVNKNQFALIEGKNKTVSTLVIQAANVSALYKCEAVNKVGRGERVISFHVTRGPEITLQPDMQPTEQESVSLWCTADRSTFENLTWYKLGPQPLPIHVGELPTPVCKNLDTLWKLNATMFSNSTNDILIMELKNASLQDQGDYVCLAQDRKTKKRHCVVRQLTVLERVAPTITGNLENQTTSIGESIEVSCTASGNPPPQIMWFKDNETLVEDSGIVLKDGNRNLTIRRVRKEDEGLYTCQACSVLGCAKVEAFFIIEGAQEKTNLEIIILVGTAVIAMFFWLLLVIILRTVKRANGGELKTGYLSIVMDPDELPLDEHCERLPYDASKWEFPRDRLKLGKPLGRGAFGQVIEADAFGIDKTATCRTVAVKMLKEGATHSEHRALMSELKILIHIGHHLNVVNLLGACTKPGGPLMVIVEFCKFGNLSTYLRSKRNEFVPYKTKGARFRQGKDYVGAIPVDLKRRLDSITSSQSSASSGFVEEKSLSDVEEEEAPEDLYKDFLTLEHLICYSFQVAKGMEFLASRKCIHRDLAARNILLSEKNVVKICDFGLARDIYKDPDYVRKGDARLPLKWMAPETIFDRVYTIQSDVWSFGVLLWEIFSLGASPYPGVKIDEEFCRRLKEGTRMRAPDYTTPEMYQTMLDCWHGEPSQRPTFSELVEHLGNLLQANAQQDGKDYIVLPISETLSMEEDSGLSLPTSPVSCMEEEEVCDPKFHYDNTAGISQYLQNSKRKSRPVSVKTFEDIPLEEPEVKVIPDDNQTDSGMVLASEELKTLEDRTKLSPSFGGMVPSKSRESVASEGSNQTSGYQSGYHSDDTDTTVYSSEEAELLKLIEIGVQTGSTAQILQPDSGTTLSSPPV
Molecule `C[C@@H]1Oc2ccc(-c3csc(NC(=O)c4cccc(Cl)c4)n3)cc2NC1=O` has an IC50 of 3.4 nM.
`COc1ccccc1NC(=O)c1ccc(CSc2nnc3c(n2)[nH]c2ccccc23)cc1` showed an IC50 of 1.6 nM.
`CCOC(=O)CSc1nc2c(c(=O)[nH]c(=O)n2C)n1Cc1cccc(C)c1` was tested, and the IC50 was 2.9 nM.
In the case of `Cc1nc2ccccc2n1C1CCN(CC(=O)Nc2ccccc2Br)CC1` [ASN06356088], the IC50 is reported as 10 nM.
With `O=C(Nc1ccc(Oc2ncnc3sc4c(c23)CCCC4)cc1)c1ccccc1` the IC50 was 4.1 nM.
For `NC(=O)c1cc(-c2ccccc2)sc1NC(=O)c1ccc(OC(F)F)cc1`, the IC50 was 5.6 nM.
`COc1ccc(OC)c(NC(=O)c2ccc(CSc3ncnc4[nH]cnc34)cc2)c1` gave an IC50 of 5.9 nM.
Molecule `CCOc1ccc(Nc2cnnc(Nc3ccc(OCC)cc3)n2)cc1` has an IC50 of 4.1 nM.
Molecule `Cc1ccc2nc(NC(=O)Cc3csc(NC(=O)Nc4cccc(Cl)c4)n3)sc2c1` has an IC50 of 4.2 nM.
`CNC(=O)c1csc2cc(Oc3ccnc4cc(C5=NCCN5C)sc34)ccc12` gave an IC50 of 0.34 nM.
`CNC(=O)c1cc(COc2nnc(Nc3ccc(Cl)cc3)c3ccoc23)ccn1` [TELATINIB] gave an IC50 of 6 nM.
In the case of `O=C(COc1cccc(NC(=O)c2cccnc2)c1)Nc1ccc(Br)cc1` [ASN01107570], the IC50 is reported as 5 nM.
